One assay concerns SND1. The assay is described as follows: SND1 protein levels in MECs treated with CPT (western blot). The format is cell-based, mouse. Conditions: PyMT;Mtdh+/+ pMECs, CPT at indicated concentrations for 36 hours. The protocol: (§1) FIGS. 9A-I illustrates that MTDH confers survival advantage by interacting with and stabilizing pro-survival protein SND1 under stress. (FIG. 9A) Quantification of cleaved caspase 3-positive MECs from normal or MMTV-PyMT preneoplastic glands (n>3) of WT (left column) or KO females (right column). (FIG. 9B) The effect of CPT on the apoptosis of PyMT;Mtdh−/− pMECs reconstituted with indicated Mtdh constructs (left column: VEC; middle column: WT; right column: W391D) was determined by PI and Hoechst staining. (FIG. 9C) The effect of CPT on the apoptosis of control (left column) or SND1-KD (right column) PyMT;Mtdh+/+ pMECs. (FIG. 9D) Protein levels of SND1 and β-actin (loading control) in control or MTDH-KD PyMT;Mtdh+/+ pMECs treated with CPT at indicated concentrations for 36 hours. Degradation curve (right) represents the average of 3 independent experiments. (FIG. 9E) Western blotting of SND1, MTDH and β-actin (loading control) in PyMT;Mtdh−/− MECs reconstituted with indicated constructs after CPT treatment for 48 hours. Degradation curves (right) represent average of 3 independent experiments. […] Z scores were calculated based on gene expression changes and gene functions as specified by the ingenuity knowledge base. […]
A general note: Immunoblotting shows a protein as a band on a membrane.

The subject of a further assay is PyMT;Mtdh−/− pMECs. The assay is described as follows: CPT-induced apoptosis of MECs (PI and Hoechst staining). The format is cell-based, mouse. The settings on record: CPT to induce DNA replication stress. The protocol:
as §1

Another assay concerns the target T1, MTDH (Mus musculus, UniProt Q80WJ7).
T1 construct: endogenous in cells; host or cells: SND1-KD PyMT;Mtdh+/+ mouse mammary tumor cells
T1 sequence (Q80WJ7 1-579): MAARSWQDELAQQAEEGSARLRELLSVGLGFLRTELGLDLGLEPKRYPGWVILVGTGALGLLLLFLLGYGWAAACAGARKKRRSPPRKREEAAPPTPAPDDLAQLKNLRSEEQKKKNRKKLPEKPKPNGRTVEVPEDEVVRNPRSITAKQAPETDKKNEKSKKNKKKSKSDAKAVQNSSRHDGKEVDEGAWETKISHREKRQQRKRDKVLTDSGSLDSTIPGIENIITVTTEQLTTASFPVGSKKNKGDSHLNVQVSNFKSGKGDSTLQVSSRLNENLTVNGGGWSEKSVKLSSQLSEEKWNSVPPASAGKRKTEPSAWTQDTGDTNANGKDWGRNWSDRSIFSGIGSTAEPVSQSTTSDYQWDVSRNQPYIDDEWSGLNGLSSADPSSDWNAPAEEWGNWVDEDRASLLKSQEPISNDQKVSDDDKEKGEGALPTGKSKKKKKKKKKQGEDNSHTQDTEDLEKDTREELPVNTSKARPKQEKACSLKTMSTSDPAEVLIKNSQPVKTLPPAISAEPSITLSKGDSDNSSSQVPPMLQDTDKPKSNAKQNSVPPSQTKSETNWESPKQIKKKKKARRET
Put plainly: Anti-MTDH immunoprecipitation from SND1-KD PyMT;Mtdh+/+ tumor cells reconstituted with murine SND1. The format is cell-based. The settings on record: shRNA-resistant construct in SND1-KD PyMT;Mtdh+/+ tumor cells. The protocol:
(FIG. 24A) Lysates from SND1-KD PyMT;Mtdh+/+ tumor cells reconstituted with vector control, WT or mutant shRNA-resistant murine SND1 were immunoprecipitated with anti-MTDH antibody and immunoblotted for indicated proteins. (FIG. 24B) Mammosphere assays were performed with SND1-KD PyMT;Mtdh+/+ tumor cells reconstituted with vector control or indicated SND1 constructs. (FIG. 24C, FIG. 24D) Mammary tumor incidence (FIG. 24C) and tumor growth curve (FIG. 24D) after orthotopic transplantations of SND1-KD PyMT;Mtdh+/+ tumor cells reconstituted with indicated constructs. Statistics: (FIG. 24B, FIG. 24D) Student's t-test. Data represent mean±SEM. (FIG. 24C) Chi-square test. […], *p<0.01, *p<0.05.
Immunoprecipitation and western blot: For in vivo immunoprecipitation (IP) experiments, cultured cells were washed in cold PBS and lysed in lysis buffer (20 mM Tris pH 7.4, 0.15 M NaCl, 1 mM EDTA, 1 mM EGTA, 1% Tx-100, 0.0025 M Na2P2O7, 1 mM β-glycerolphosphate, 1 mM Na3VO4, and 1 mM NaF) with an EDTA-free protease inhibitor mixture (Roche Applied Science) and PMSF. Cell lysates were then incubated on ice for 10 min, centrifuged, and precleared by incubating with protein A/G beads (Santa Cruz Biotechnology) for 1 h at 4° C. For IP bead preparation, 30 μl of protein A/G beads were incubated with 5 μg of antibodies for 2 h at 4° C. […]

Take `CC[C@@]1(O)C(=O)OCc2c1cc1n(c2=O)Cc2cc3ccccc3nc2-1` [CPT, camptothecin]: in the assay with SND1, the SND1 protein levels entry is “drug dosage-dependent decrease of SND1 protein levels”. The “apoptosis of MECs” value in the assay on PyMT;Mtdh−/− pMECs is given as “induced apoptosis of MECs in a dosage-dependent manner”.

B1: murine SND1 R255E: shRNA-resistant murine SND1 mutant R255E (protein, UniProt Q78PY7 2-910, looked up, variant R255E)
Staphylococcal nuclease …: ASSAQSSGSSGGPAVPTVQRGIVKMVLSGCAIIVRGQPRGGPPPERQINLSNIRAGNLARRAAATQPDGKDTPDEPWAFPAREFLRKKLIGKEVCFTIENKTPQGREYGMIYLGKDTNGENIAESLVAEGLATRREGMRANNPEQNRLSECEEQAKASKKGMWSEGNGSHTIRDLKYTIENPRHFVDSHHQKPVNAIIEHVRDGSVVRALLLPGHHLVTVMLSGIKCPTFRRETDGSETPEPFAAEAKFFTESELLQRDVQIILESCHNQNLLGTILHPNGNITELLLKEGFARCVDWSIAVYTRGAEKLRAAERFAKERRLRIWRDYVPPTANLDQKDKQFVAKVMQVLNADAIVVKLNSGDYKTIHLSSIRPPRLEGDNIQDKNKKLRPLYDIPYMFEAREFLRKKLIGKKVNVTVDYIRPASPATETVPAFSERTCATVTIGGINIAEALVSKGLATVIRYRQDDDQRSSHYDELLAAEARAIKNGKGLHSKKEVPIHRVADISGDTQKAKQFLPFLQRAGRSEAVVEYVFSGSRLKLYLPKETCLITFLLAGIECPRGARNLPGLVQEGEPFSEEATLFTKELVLQREVEVEVESMDKAGNFIGWLHMDGANLSVLLVEQALSKVHFTAERSAYYKPLLSAEEAAKQRKEKVWAHYEERPVEEVMPVLEEKERSASYKPVFVTEITDDLHFYVQDVETGTQLEKLMENMRNDISSHPPVEGSYAPRRGEFCIAKFVDGEWYRARVEKVESPAKVHVFYIDYGNREILPSTRLGTLPPAFSTRVLPAQATEYAFAFIQVPQDEDARTDAVDSVVRDIQNTQCLLNVEHLSASCPHVTLQFADSKGDVGLGLVKEGLVMVEVRKEKQFQKVITEYLNAQESAKSARLNLWRYGDFRADDADEFGYSR
modifications: shRNA-resistant
For B1, the “interaction of murine SND1 mutants with MTDH” value with MTDH is reported as “nearly completely abolished the interaction with MTDH”.

Values taken from patent US10357539B2, “Use of peptides that block metadherin-SND1 interaction as treatment for cancer” (THE TRUSTEES OF PRINCETON UNIVERSITY, priority 2014, dated 2019).
